In PubChem BioAssay (NCI):
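Following 48 hours of exposure in 96-well plates, responses at five concentrations were used to interpolate endpoints linearly. The concentration for full growth arrest is given as TGI.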

Tests used:
Experiment in all cases: NCI-60 cell line screen, 48 h
M14 melanoma = tested on: M14 melanoma
SNB-75 CNS = tested on: SNB-75 CNS
DU-145 prostate = tested on: DU-145 prostate
HL-60(TB) leukemia = tested on: HL-60(TB) leukemia
SNB-19 CNS = tested on: SNB-19 CNS
OVCAR-5 ovarian = tested on: OVCAR-5 ovarian
MDA-N = tested on: MDA-N
EKVX NSCLC = tested on: EKVX NSCLC
SF-295 CNS = tested on: SF-295 CNS
UO-31 renal = tested on: UO-31 renal
SK-MEL-5 melanoma = tested on: SK-MEL-5 melanoma
NCI/ADR-RES ovarian = tested on: NCI/ADR-RES ovarian
OVCAR-4 ovarian = tested on: OVCAR-4 ovarian
CCRF-CEM leukemia = tested on: CCRF-CEM leukemia
U251 CNS = tested on: U251 CNS
SK-MEL-28 melanoma = tested on: SK-MEL-28 melanoma
NCI-H226 lung = tested on: NCI-H226 lung
NCI-H522 lung = tested on: NCI-H522 lung
NCI-H23 lung = tested on: NCI-H23 lung
BT-549 breast = tested on: BT-549 breast
A549 NSCLC = tested on: A549 NSCLC
786-0 renal = tested on: 786-0 renal
MDA-MB-435 = tested on: MDA-MB-435
CAKI-1 renal = tested on: CAKI-1 renal
MDA-MB-231 breast = tested on: MDA-MB-231 breast
HCT-15 colon = tested on: HCT-15 colon
RXF 393 renal = tested on: RXF 393 renal
TK-10 renal = tested on: TK-10 renal
MCF7 breast = tested on: MCF7 breast
K-562 leukemia = tested on: K-562 leukemia
SF-268 CNS = tested on: SF-268 CNS
KM12 colon = tested on: KM12 colon
OVCAR-8 ovarian = tested on: OVCAR-8 ovarian
COLO 205 colon = tested on: COLO 205 colon
UACC-62 melanoma = tested on: UACC-62 melanoma
MALME-3M melanoma = tested on: MALME-3M melanoma
NCI-H460 lung = tested on: NCI-H460 lung
PC-3 prostate = tested on: PC-3 prostate
HCC-2998 colon = tested on: HCC-2998 colon
T-47D breast = tested on: T-47D breast
IGROV1 ovarian = tested on: IGROV1 ovarian
LOX IMVI melanoma = tested on: LOX IMVI melanoma
SW-620 colon = tested on: SW-620 colon
SN12C renal = tested on: SN12C renal
SK-MEL-2 melanoma = tested on: SK-MEL-2 melanoma
MOLT-4 leukemia = tested on: MOLT-4 leukemia
HOP-62 NSCLC = tested on: HOP-62 NSCLC
UACC-257 melanoma = tested on: UACC-257 melanoma
HCT-116 colon = tested on: HCT-116 colon
SR leukemia = tested on: SR leukemia
SK-OV-3 ovarian = tested on: SK-OV-3 ovarian
A498 renal = tested on: A498 renal
HT29 colon = tested on: HT29 colon
SF-539 CNS = tested on: SF-539 CNS
ACHN renal = tested on: ACHN renal
RPMI-8226 leukemia = tested on: RPMI-8226 leukemia
OVCAR-3 ovarian = tested on: OVCAR-3 ovarian
HOP-92 NSCLC = tested on: HOP-92 NSCLC

## Cc1cc(S(=O)(=O)NC2=NCC(C)NN2)c(S)cc1Cl (stereo unspecified)
M14 melanoma
  TGI: > 100 µM
SNB-75 CNS
  TGI: > 100 µM
DU-145 prostate
  TGI: > 100 µM
HL-60(TB) leukemia
  TGI: > 100 µM
SNB-19 CNS
  TGI: > 100 µM
OVCAR-5 ovarian
  TGI: > 100 µM
MDA-N
  TGI: > 100 µM
EKVX NSCLC
  TGI: > 100 µM
SF-295 CNS
  TGI: > 100 µM
UO-31 renal
  TGI: > 100 µM
SK-MEL-5 melanoma
  TGI: > 100 µM
NCI/ADR-RES ovarian
  TGI: > 100 µM
OVCAR-4 ovarian
  TGI: > 100 µM
CCRF-CEM leukemia
  TGI: > 100 µM
U251 CNS
  TGI: > 100 µM
SK-MEL-28 melanoma
  TGI: > 100 µM
NCI-H226 lung
  TGI: > 100 µM
NCI-H522 lung
  TGI: 47 µM
NCI-H23 lung
  TGI: > 100 µM
BT-549 breast
  TGI: > 100 µM
A549 NSCLC
  TGI: > 100 µM
786-0 renal
  TGI: > 100 µM
MDA-MB-435
  TGI: > 100 µM
CAKI-1 renal
  TGI: > 100 µM
MDA-MB-231 breast
  TGI: > 100 µM
HCT-15 colon
  TGI: > 100 µM
RXF 393 renal
  TGI: > 100 µM
TK-10 renal
  TGI: > 100 µM
MCF7 breast
  TGI: > 100 µM
K-562 leukemia
  TGI: 80.9 µM
SF-268 CNS
  TGI: 73 µM
KM12 colon
  TGI: > 100 µM
OVCAR-8 ovarian
  TGI: > 100 µM
COLO 205 colon
  TGI: > 100 µM
UACC-62 melanoma
  TGI: > 100 µM
MALME-3M melanoma
  TGI: 69.2 µM
NCI-H460 lung
  TGI: > 100 µM
PC-3 prostate
  TGI: > 100 µM
HCC-2998 colon
  TGI: > 100 µM
T-47D breast
  TGI: > 100 µM
IGROV1 ovarian
  TGI: 53.3 µM
LOX IMVI melanoma
  TGI: 37.7 µM
SW-620 colon
  TGI: > 100 µM
SN12C renal
  TGI: > 100 µM
SK-MEL-2 melanoma
  TGI: 84.3 µM
MOLT-4 leukemia
  TGI: > 100 µM
HOP-62 NSCLC
  TGI: > 100 µM
UACC-257 melanoma
  TGI: > 100 µM
HCT-116 colon
  TGI: > 100 µM
SR leukemia
  TGI: 90.4 µM
SK-OV-3 ovarian
  TGI: > 100 µM
A498 renal
  TGI: 69.8 µM
HT29 colon
  TGI: > 100 µM
SF-539 CNS
  TGI: > 100 µM
ACHN renal
  TGI: > 100 µM
RPMI-8226 leukemia
  TGI: 61.8 µM
OVCAR-3 ovarian
  TGI: > 100 µM

## COc1ccn(CC(=O)c2cc3ccccc3[nH]2)c(=O)n1
M14 melanoma
  TGI: > 100 µM
SNB-75 CNS
  TGI: > 100 µM
DU-145 prostate
  TGI: > 100 µM
HL-60(TB) leukemia
  TGI: > 100 µM
SNB-19 CNS
  TGI: > 100 µM
OVCAR-5 ovarian
  TGI: > 100 µM
MDA-N
  TGI: > 100 µM
EKVX NSCLC
  TGI: > 100 µM
SF-295 CNS
  TGI: > 100 µM
UO-31 renal
  TGI: > 100 µM
SK-MEL-5 melanoma
  TGI: > 100 µM
NCI/ADR-RES ovarian
  TGI: > 100 µM
OVCAR-4 ovarian
  TGI: > 100 µM
CCRF-CEM leukemia
  TGI: > 100 µM
U251 CNS
  TGI: > 100 µM
SK-MEL-28 melanoma
  TGI: > 100 µM
NCI-H226 lung
  TGI: > 100 µM
NCI-H522 lung
  TGI: > 100 µM
NCI-H23 lung
  TGI: > 100 µM
BT-549 breast
  TGI: > 100 µM
A549 NSCLC
  TGI: > 100 µM
786-0 renal
  TGI: > 100 µM
MDA-MB-435
  TGI: > 100 µM
CAKI-1 renal
  TGI: > 100 µM
MDA-MB-231 breast
  TGI: > 100 µM
HCT-15 colon
  TGI: > 100 µM
RXF 393 renal
  TGI: > 100 µM
TK-10 renal
  TGI: > 100 µM
MCF7 breast
  TGI: > 100 µM
K-562 leukemia
  TGI: > 100 µM
SF-268 CNS
  TGI: > 100 µM
KM12 colon
  TGI: > 100 µM
OVCAR-8 ovarian
  TGI: > 100 µM
COLO 205 colon
  TGI: > 100 µM
UACC-62 melanoma
  TGI: > 100 µM
HOP-92 NSCLC
  TGI: > 100 µM
MALME-3M melanoma
  TGI: > 100 µM
NCI-H460 lung
  TGI: > 100 µM
PC-3 prostate
  TGI: > 100 µM
HCC-2998 colon
  TGI: > 100 µM
T-47D breast
  TGI: > 100 µM
IGROV1 ovarian
  TGI: > 100 µM
LOX IMVI melanoma
  TGI: > 100 µM
SW-620 colon
  TGI: > 100 µM
SN12C renal
  TGI: > 100 µM
SK-MEL-2 melanoma
  TGI: > 100 µM
MOLT-4 leukemia
  TGI: > 100 µM
HOP-62 NSCLC
  TGI: > 100 µM
UACC-257 melanoma
  TGI: > 100 µM
HCT-116 colon
  TGI: > 100 µM
SK-OV-3 ovarian
  TGI: > 100 µM
A498 renal
  TGI: > 100 µM
HT29 colon
  TGI: > 100 µM
SF-539 CNS
  TGI: > 100 µM
ACHN renal
  TGI: > 100 µM
RPMI-8226 leukemia
  TGI: > 100 µM
OVCAR-3 ovarian
  TGI: > 100 µM

## NC(Cc1ccc(O)c(O)c1)P(=O)(O)O (stereo unspecified)
M14 melanoma
  TGI: > 100 µM
SNB-75 CNS
  TGI: > 100 µM
DU-145 prostate
  TGI: > 100 µM
HL-60(TB) leukemia
  TGI: 45.7 µM
SNB-19 CNS
  TGI: > 100 µM
OVCAR-5 ovarian
  TGI: > 100 µM
MDA-N
  TGI: > 100 µM
SF-295 CNS
  TGI: > 100 µM
UO-31 renal
  TGI: > 100 µM
SK-MEL-5 melanoma
  TGI: > 100 µM
NCI/ADR-RES ovarian
  TGI: > 100 µM
OVCAR-4 ovarian
  TGI: > 100 µM
CCRF-CEM leukemia
  TGI: 68.6 µM
U251 CNS
  TGI: > 100 µM
SK-MEL-28 melanoma
  TGI: > 100 µM
NCI-H226 lung
  TGI: > 100 µM
NCI-H522 lung
  TGI: 20.1 µM
NCI-H23 lung
  TGI: > 100 µM
BT-549 breast
  TGI: > 100 µM
A549 NSCLC
  TGI: > 100 µM
786-0 renal
  TGI: > 100 µM
MDA-MB-435
  TGI: > 100 µM
CAKI-1 renal
  TGI: > 100 µM
MDA-MB-231 breast
  TGI: > 100 µM
HCT-15 colon
  TGI: > 100 µM
RXF 393 renal
  TGI: > 100 µM
TK-10 renal
  TGI: > 100 µM
K-562 leukemia
  TGI: 42 µM
SF-268 CNS
  TGI: > 100 µM
KM12 colon
  TGI: > 100 µM
OVCAR-8 ovarian
  TGI: > 100 µM
UACC-62 melanoma
  TGI: > 100 µM
HOP-92 NSCLC
  TGI: > 100 µM
MALME-3M melanoma
  TGI: > 100 µM
NCI-H460 lung
  TGI: > 100 µM
PC-3 prostate
  TGI: > 100 µM
HCC-2998 colon
  TGI: > 100 µM
T-47D breast
  TGI: 95.7 µM
IGROV1 ovarian
  TGI: > 100 µM
SW-620 colon
  TGI: 43.2 µM
SN12C renal
  TGI: > 100 µM
SK-MEL-2 melanoma
  TGI: > 100 µM
MOLT-4 leukemia
  TGI: > 100 µM
UACC-257 melanoma
  TGI: > 100 µM
HCT-116 colon
  TGI: > 100 µM
SR leukemia
  TGI: > 100 µM
A498 renal
  TGI: > 100 µM
HT29 colon
  TGI: > 100 µM
SF-539 CNS
  TGI: > 100 µM
ACHN renal
  TGI: > 100 µM
RPMI-8226 leukemia
  TGI: > 100 µM
OVCAR-3 ovarian
  TGI: > 100 µM
